Test system: 997537-175-T-J1-PDC complex spheroid viability
Assay: Anticancer human tumor 997537-175-T-J1-PDC patient-derived colon adenocarcinoma cell line growth inhibition [GQUAD]
Details: for IC50: curve of first compound; for viability, T/C: stronger effect = lower value
Summary of the method: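 Viability of tumor cells grown as complex spheroids with endothelial and stromal cells, exposed to drug combinations. Top concentration at or near clinical Cmax (else 10 microM), diluted in half-log increments.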

[1] = second compound 0.0316 µM, first compound 0.0316 µM
[2] = second compound 0.0316 µM, first compound 0.1 µM
[3] = second compound 0.0316 µM, first compound 0.316 µM
[4] = second compound 0.0316 µM, first compound 1 µM
[5] = second compound 0.0316 µM, first compound 3.16 µM
[6] = second compound 0.0316 µM, first compound 10 µM
[7] = second compound 0.1 µM, first compound 0.0316 µM
[8] = second compound 0.1 µM, first compound 0.1 µM
[9] = second compound 0.1 µM, first compound 0.316 µM
[10] = second compound 0.1 µM, first compound 1 µM
[11] = second compound 0.1 µM, first compound 3.16 µM
[12] = second compound 0.1 µM, first compound 10 µM
[13] = second compound 0.316 µM, first compound 0.0316 µM
[14] = second compound 0.316 µM, first compound 0.1 µM
[15] = second compound 0.316 µM, first compound 0.316 µM
[16] = second compound 0.316 µM, first compound 1 µM
[17] = second compound 0.316 µM, first compound 3.16 µM
[18] = second compound 0.316 µM, first compound 10 µM
[19] = second compound 1 µM, first compound 0.0316 µM
[20] = second compound 1 µM, first compound 0.1 µM
[21] = second compound 1 µM, first compound 0.316 µM
[22] = second compound 1 µM, first compound 1 µM
[23] = second compound 1 µM, first compound 3.16 µM
[24] = second compound 1 µM, first compound 10 µM
[25] = second compound 3.16 µM, first compound 0.0316 µM
[26] = second compound 3.16 µM, first compound 0.1 µM
[27] = second compound 3.16 µM, first compound 0.316 µM
[28] = second compound 3.16 µM, first compound 1 µM
[29] = second compound 3.16 µM, first compound 3.16 µM
[30] = second compound 3.16 µM, first compound 10 µM
[31] = second compound 10 µM, first compound 0.0316 µM
[32] = second compound 10 µM, first compound 0.1 µM
[33] = second compound 10 µM, first compound 0.316 µM
[34] = second compound 10 µM, first compound 1 µM
[35] = second compound 10 µM, first compound 3.16 µM
[36] = second compound 10 µM, first compound 10 µM
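Also: spheroids exposed to the agents for 7 days.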
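For viability, T/C in this document: 100% = DMSO vehicle control viability.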

C=CC(=O)N1CCN(c2nc(=O)n(-c3c(C)ccnc3C(C)C)c3nc(-c4c(O)cccc4F)c(F)cc23)C(C)C1 (stereo not drawn) + Cc1cnc(CNC(=O)c2c(=O)c3ccc(N4CCCN(C)CC4)nc3n3c2sc2ccccc23)cn1
IC50 (second compound 0.0316 µM): > 10 µM
IC50 (second compound 0.1 µM): > 10 µM
IC50 (second compound 0.316 µM): > 10 µM
IC50 (second compound 1 µM): > 10 µM
IC50 (second compound 3.16 µM): > 10 µM
IC50 (second compound 10 µM): > 10 µM
viability, T/C [1]: 102%
viability, T/C [2]: 90.1%
viability, T/C [3]: 93.8%
viability, T/C [4]: 71.5%
viability, T/C [5]: 77%
viability, T/C [6]: 87.7%
viability, T/C [7]: 98.8%
viability, T/C [8]: 77.7%
viability, T/C [9]: 87.5%
viability, T/C [10]: 64.5%
viability, T/C [11]: 102%
viability, T/C [12]: 91.4%
viability, T/C [13]: 84.7%
viability, T/C [14]: 85%
viability, T/C [15]: 85.4%
viability, T/C [16]: 94.9%
viability, T/C [17]: 89.4%
viability, T/C [18]: 90.4%
viability, T/C [19]: 93.7%
viability, T/C [20]: 100%
viability, T/C [21]: 99%
viability, T/C [22]: 95%
viability, T/C [23]: 102%
viability, T/C [24]: 99.2%
viability, T/C [25]: 68.9%
viability, T/C [26]: 115%
viability, T/C [27]: 96.5%
viability, T/C [28]: 102%
viability, T/C [29]: 103%
viability, T/C [30]: 94.4%
viability, T/C [31]: 84.1%
viability, T/C [32]: 83.5%
viability, T/C [33]: 114%
viability, T/C [34]: 87.7%
viability, T/C [35]: 95.3%
viability, T/C [36]: 118%

COc1cc(C2c3cc4c(cc3C(OC3OC5COC(C)OC5C(O)C3O)C3COC(=O)C23)OCO4)cc(OC)c1O (stereo not drawn) + Cc1cnc(CNC(=O)c2c(=O)c3ccc(N4CCCN(C)CC4)nc3n3c2sc2ccccc23)cn1
IC50 (second compound 0.0316 µM): > 10 µM
IC50 (second compound 0.1 µM): > 10 µM
IC50 (second compound 0.316 µM): 5.74 µM
IC50 (second compound 1 µM): > 10 µM
IC50 (second compound 3.16 µM): > 10 µM
IC50 (second compound 10 µM): > 10 µM
viability, T/C [1]: 113%
viability, T/C [2]: 97.7%
viability, T/C [3]: 101%
viability, T/C [4]: 60.2%
viability, T/C [5]: 78.6%
viability, T/C [6]: 53%
viability, T/C [7]: 109%
viability, T/C [8]: 96.5%
viability, T/C [9]: 84.9%
viability, T/C [10]: 71.3%
viability, T/C [11]: 63.2%
viability, T/C [12]: 76.7%
viability, T/C [13]: 78%
viability, T/C [14]: 109%
viability, T/C [15]: 104%
viability, T/C [16]: 89.1%
viability, T/C [17]: 60%
viability, T/C [18]: 40.9%
viability, T/C [19]: 88.1%
viability, T/C [20]: 84.1%
viability, T/C [21]: 97.3%
viability, T/C [22]: 101%
viability, T/C [23]: 75.3%
viability, T/C [24]: 63.3%
viability, T/C [25]: 62.1%
viability, T/C [26]: 99.2%
viability, T/C [27]: 104%
viability, T/C [28]: 86.2%
viability, T/C [29]: 76.4%
viability, T/C [30]: 50.7%
viability, T/C [31]: 71.4%
viability, T/C [32]: 84.9%
viability, T/C [33]: 106%
viability, T/C [34]: 98.5%
viability, T/C [35]: 88.6%
viability, T/C [36]: 69.5%

Cc1cccc(N(C)C(=O)C2C(O)CCN2c2nc(C)cc(C(F)(F)F)c2C#N)c1 (stereo not drawn) + Cc1cnc(CNC(=O)c2c(=O)c3ccc(N4CCCN(C)CC4)nc3n3c2sc2ccccc23)cn1
IC50 (second compound 0.0316 µM): > 10 µM
IC50 (second compound 0.1 µM): > 10 µM
IC50 (second compound 0.316 µM): > 10 µM
IC50 (second compound 1 µM): > 10 µM
IC50 (second compound 3.16 µM): > 10 µM
IC50 (second compound 10 µM): > 10 µM
viability, T/C [1]: 82.4%
viability, T/C [2]: 80.5%
viability, T/C [3]: 89.2%
viability, T/C [4]: 97.2%
viability, T/C [5]: 82.3%
viability, T/C [6]: 98.5%
viability, T/C [7]: 102%
viability, T/C [8]: 94.2%
viability, T/C [9]: 94.2%
viability, T/C [10]: 67%
viability, T/C [11]: 88.6%
viability, T/C [12]: 92.4%
viability, T/C [13]: 93.7%
viability, T/C [14]: 75.2%
viability, T/C [15]: 99.5%
viability, T/C [16]: 73.8%
viability, T/C [17]: 112%
viability, T/C [18]: 84.3%
viability, T/C [19]: 94.6%
viability, T/C [20]: 98.5%
viability, T/C [21]: 87.8%
viability, T/C [22]: 88.4%
viability, T/C [23]: 106%
viability, T/C [24]: 99.7%
viability, T/C [25]: 77.3%
viability, T/C [26]: 103%
viability, T/C [27]: 96%
viability, T/C [28]: 93.4%
viability, T/C [29]: 107%
viability, T/C [30]: 87.7%
viability, T/C [31]: 85.1%
viability, T/C [32]: 114%
viability, T/C [33]: 98.3%
viability, T/C [34]: 95%
viability, T/C [35]: 96.9%
viability, T/C [36]: 86.7%

Cn1ncnc1[C@H]1c2n[nH]c(=O)c3cc(F)cc(c23)N[C@@H]1c1ccc(F)cc1 + Cc1cnc(CNC(=O)c2c(=O)c3ccc(N4CCCN(C)CC4)nc3n3c2sc2ccccc23)cn1
IC50 (second compound 0.0316 µM): > 0.316 µM
IC50 (second compound 0.1 µM): > 0.316 µM
IC50 (second compound 0.316 µM): > 0.316 µM
IC50 (second compound 1 µM): > 0.316 µM
IC50 (second compound 3.16 µM): > 0.316 µM
IC50 (second compound 10 µM): > 0.316 µM
viability, T/C (second compound 0.0316 µM, first compound 0.000999 µM): 96.5%
viability, T/C (second compound 0.0316 µM, first compound 0.00316 µM): 90.8%
viability, T/C (second compound 0.0316 µM, first compound 0.00999 µM): 90.8%
viability, T/C [1]: 86.6%
viability, T/C (second compound 0.0316 µM, first compound 0.0999 µM): 76.9%
viability, T/C [3]: 87.4%
viability, T/C (second compound 0.1 µM, first compound 0.000999 µM): 106%
viability, T/C (second compound 0.1 µM, first compound 0.00316 µM): 79.2%
viability, T/C (second compound 0.1 µM, first compound 0.00999 µM): 106%
viability, T/C [7]: 52.1%
viability, T/C (second compound 0.1 µM, first compound 0.0999 µM): 89.6%
viability, T/C [9]: 85%
viability, T/C (second compound 0.316 µM, first compound 0.000999 µM): 107%
viability, T/C (second compound 0.316 µM, first compound 0.00316 µM): 93.8%
viability, T/C (second compound 0.316 µM, first compound 0.00999 µM): 86.4%
viability, T/C [13]: 80.8%
viability, T/C (second compound 0.316 µM, first compound 0.0999 µM): 98.7%
viability, T/C [15]: 85.5%
viability, T/C (second compound 1 µM, first compound 0.000999 µM): 89.4%
viability, T/C (second compound 1 µM, first compound 0.00316 µM): 89.9%
viability, T/C (second compound 1 µM, first compound 0.00999 µM): 94.4%
viability, T/C [19]: 116%
viability, T/C (second compound 1 µM, first compound 0.0999 µM): 95%
viability, T/C [21]: 108%
viability, T/C (second compound 3.16 µM, first compound 0.000999 µM): 104%
viability, T/C (second compound 3.16 µM, first compound 0.00316 µM): 86.9%
viability, T/C (second compound 3.16 µM, first compound 0.00999 µM): 96.2%
viability, T/C [25]: 100%
viability, T/C (second compound 3.16 µM, first compound 0.0999 µM): 94.4%
viability, T/C [27]: 106%
viability, T/C (second compound 10 µM, first compound 0.000999 µM): 87.2%
viability, T/C (second compound 10 µM, first compound 0.00316 µM): 98.9%
viability, T/C (second compound 10 µM, first compound 0.00999 µM): 97.7%
viability, T/C [31]: 103%
viability, T/C (second compound 10 µM, first compound 0.0999 µM): 96.4%
viability, T/C [33]: 98.3%
